According to patent US11331294B2, “Benzoquinone derivative E3330 in combination with chemotherapeutic agents for the treatment of bladder cancer” (Indiana University Research and Technology Corporation, priority 2007, dated 2022):

Columns and labels:
T24 cells = assay: Methylene blue cell growth assay T24; type: cell-based; conditions: Homo sapiens, T-24, read-out: cell growth-inhibitory IC50
Procedure: FIGS. 31A & 31B. Treatment with APE1/Ref-1 inhibitors potently blocks bladder cancer cell proliferation and activated Caspase 3/7. […] The IC50 values for FIG. 31A were determined using the methylene blue assay, n=4. […] T24 and UC3 cells were treated with APX2009 and APX2014 at the IC50 and IC90 and monitored over time for activation of capsase 3/7 by an increase in red fluorescence. Time course graphs are shown in FIG. 31B and representative images at 48 hr are shown in FIG. 32A (described more fully below), n=3-4.
FIGS. 36A-36H. […] In cytokine-induced T24 and UC3 cells NFκB-driven luciferase (FIG. 36A), STAT3-driven luciferase (FIG. 36B), and AP-1-driven luciferase (FIG. 36C) were quantified and normalized via Renilla following treatment with the corresponding cell growth-inhibitory IC50 concentrations. T24 cells were treated with APX2009 (8.5 μM) and APX2014 (6.5 μM), and UC3 cells were treated with APX2009 (6.1 μM) and APX2014 (4.6 μM) for 24 h. (*-p<0.05 APX treated vs vehicle, n=4). […] In the panels of FIGS. 36F & 36G, co-expression of survivin and APE1/Ref-1 was analyzed in superficial (FIG. 36F) and invasive human bladder tumors (FIG. 36G) in patients, and found nearly universal overlap of positivity in both in human samples. This was also true in cisplatin-refractory patients from the tissue microarray specimens (FIG. 36H). […]

bladder cancer cells = assay: BrdU incorporation assay in cultured cells; type: cell-based; conditions: IC50 concentration, 24 hours; control 11.2%±0.84
Procedure: To determine the proliferation rate of cells in response to APE1/Ref-1 redox inhibitors, cells were grown in the culture conditions described above and treated with inhibitors as described above, in chamber slides. After 24 hours in culture with inhibitors or vehicle, all cells were treated with 3.1 μg/ml BrdU (in sterile PBS; 0.1%) for one hour. Cells were fixed and permeablized with 4% paraformaldehyde and stained for BrdU incorporation with the antibody and methodology described in the Roche BrdU labeling Kit, (Risch-Rotkreuz, Switzerland), using secondary antibodies. Positive cells were captured on a Leica 6000 fluorescent microscope and were quantified relative to Hoechst positive nuclei (total live cells).
To further characterize this effect, it was analyzed whether this reduced cell number was due to decreases in proliferation, increases in apoptosis, or both.

sensory neurons = assay: Ex vivo model of sensory neurons in culture (neurotoxicity); type: cell-based
STAT3 = assay: STAT3-driven luciferase reporter; type: cell-based, human; conditions: T24 and UC3 cells induced with IL-6, IC50 concentration, 24 h
Procedure: FIGS. 36A-36H. […] In cytokine-induced T24 and UC3 cells NFκB-driven luciferase (FIG. 36A), STAT3-driven luciferase (FIG. 36B), and AP-1-driven luciferase (FIG. 36C) were quantified and normalized via Renilla following treatment with the corresponding cell growth-inhibitory IC50 concentrations. T24 cells were treated with APX2009 (8.5 μM) and APX2014 (6.5 μM), and UC3 cells were treated with APX2009 (6.1 μM) and APX2014 (4.6 μM) for 24 h. (*-p<0.05 APX treated vs vehicle, n=4). […] In the panels of FIGS. 36F & 36G, co-expression of survivin and APE1/Ref-1 was analyzed in superficial (FIG. 36F) and invasive human bladder tumors (FIG. 36G) in patients, and found nearly universal overlap of positivity in both in human samples. This was also true in cisplatin-refractory patients from the tissue microarray specimens (FIG. 36H).
The transcriptional activity of NFκB, STAT3, and AP-1 is under redox control by APE1/Ref-1. Therefore, NFκB, STAT3, or AP-1 transcriptional activity was quantified following treatment with APE1/Ref-1 redox inhibitors (FIGS. 36A-36C).

[1] = test system: T24 human bladder cancer cells; assay: T24 subcutaneous flank xenograft; type: in vivo, athymic nude mice; conditions: for tumor weight at sacrifice: ip every 12 hours, vehicle 1.0±0.2 g; for tumor growth compared to vehicle control / reduction in survivin expression in harvested tumors: ip twice daily
Procedure: […] T24 human bladder cancer cells were grown in conditions described above and harvested with 0.05% Trypsin, centrifuged, and resuspended in a 50:50 solution of Matrigel: RPMI medium. For each subcutaneous tumor, a 100 μl volume of this suspension was implanted in the hind flank of […]. […] BrdU was injected into the animals 2 hours prior to sacrifice and tumor tissues were harvested and split into either snap frozen tissues for protein harvest and molecular analysis or fixed in formalin and processed for histological analysis, and then analyzed for survivin, Cyclin D1 levels (immunofluorescence and immunoblotting) for target protein assessment and BrdU incorporation (immunofluorescence).
Prior to sacrifice, mice were injected with BrdU and BrdU incorporation was visualized and quantitated via red fluorescence.

ECFC colonies = assay: Limiting dilution assay (LDA); type: cell-based; conditions: 25, 37.5, 50 μM
Procedure: Limiting dilution assay. […] ECFCs were cultured as previously described (Blood, 1 Nov. 2004, Vol. 104, No. 9, pp. 2752-2760). ECFC colonies appeared between 5 and 22 days of culture. Colonies and the number of cells per colony were counted by visual inspection using an inverted microscope. […] Increasing amounts of APX3330(RN3-3) leads to a decrease in the number of colonies with large numbers of cells and an increase in colonies with only small cell numbers indicative of inhibition of cell growth. (FIG. 9). (In FIG. 9, the bars are, left to right, EtOH, and E330 dosed at 25 μM, 37.5 μM, and 50 μM.)

[2] = molecular target: redox function of Ape1/Ref-1 (Homo sapiens, UniProt P27695); assay: Selective inhibition of the redox function of Ape1/Ref-1
Chain of redox function of Ape1/Ref-1 (P27695 whole entry): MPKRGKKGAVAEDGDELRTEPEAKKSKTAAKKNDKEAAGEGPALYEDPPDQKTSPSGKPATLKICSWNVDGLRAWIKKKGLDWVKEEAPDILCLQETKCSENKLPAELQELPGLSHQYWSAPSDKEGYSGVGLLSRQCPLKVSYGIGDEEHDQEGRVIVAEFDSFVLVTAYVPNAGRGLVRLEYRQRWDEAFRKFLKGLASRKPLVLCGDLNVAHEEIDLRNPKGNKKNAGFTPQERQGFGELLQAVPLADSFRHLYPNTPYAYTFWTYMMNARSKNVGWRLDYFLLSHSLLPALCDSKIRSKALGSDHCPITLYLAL

HL-60 cells = assay: HL-60 differentiation and apoptosis with retinoic acid; type: cell-based
Procedure: APX3330 in combination with Retinoic Acid. […] HL-60 cells were treated with either vehicle (EtOH; control), APX3330, retinoic acid (RA) or APX3330 and RA at the concentrations indicated and morphology determined on day six. Morphological analysis indicated an increase in the differentiation of the HL-60 cells treated with APX3330 (RN3-3).

CB-ECFC cells = assay: Capillary tube formation assay on […]; type: cell-based; conditions: about eight hours after seeding
Procedure: Inhibition of capillary tube formation. The capillary tube formation assay was performed using CB-ECFC cells plated on […]® and treated with APX3330 or control media. ECFCs were cultured as previously described (Blood, 1 Nov. 2004, Vol. 104, No. 9, pp. 2752-2760). ECFC colonies appeared between 5 and 22 days of culture. Colonies were counted by visual inspection using an inverted microscope (Olympus, Lake Success, N.Y.) under ×40 magnification. Cells were passaged as previously described. Blood, 1 Nov. 2004, Vol. 104, No. 9, pp. 2752-2760.)
The tube formation assay was performed as described previously (J. Biol. Chem. 274 (1999), pp. […]). Various concentrations of APX3330 were given to CB-ECFCs for about 30 min at room temperature before seeding and plated onto the layer of […]® at a density of about 1×10^4 cells/well. After about eight hours, the enclosed networks of complete tubes from randomly chosen fields were counted and photographed under a microscope.

[3] = APX3330 50 mg/kg, APX2009 25 mg/kg
[4] = APX3330 50 mg/kg, APX2009 25 mg/kg, immunoblot

SMILES | IC50 (T24 cells) | BrdU-positive cells (bladder cancer cells) | neuroprotection against platinum-induced toxicity (sensory neurons) | STAT3 transcriptional activity (STAT3) | decrease in BrdU+ cells in tumors ([1]; APX2009 25 mg/kg ip twice daily) | tumor weight at sacrifice [1, 3] | tumor growth compared to vehicle control [1, 3] | reduction in survivin expression in harvested tumors [1, 4] | ratio of cleaved caspase 3 to total caspase 3 in harvested tumors [1, 4] | growth of large cell number colonies (ECFC colonies) | inhibition of the redox function of Ape1/Ref-1 [2] | increase in cells undergoing apoptosis, APX3330 and RA compared with RA alone (HL-60 cells; 25 μM APX3330, day 6) | reduction of RA required for same level of differentiation (CD11) (HL-60 cells; addition of APX3330 to RA) | cell differentiation in combination with retinoic acid (HL-60 cells; day six, morphology) | HL-60 cells undergoing apoptosis (annexin/PI) at lower doses of RA (HL-60 cells; lower doses of RA) | tube formation (CB-ECFC cells)
CCC/C(=C\C1=C(OC)C(=O)c2ccccc2C1=O)C(=O)N(CC)CC [APX2009, [(2E)-2-[(3-methoxy-1,4-dioxo-1,4-dihydronaphthalen-2-yl)methylidene]-N,N-diethylpentanamide]] | 8.5 µM | 6.9%±0.58 | neuroprotective against cisplatin and oxaliplatin-induced toxicity of sensory neurons | significantly blocked | 60% | 0.37 ± 0.14 g | significantly reduced tumor growth | 64% | increase in the ratio of cleaved caspase 3 | – | – | – | – | – | – | –
CCCCCCCCC/C(=C\C1=C(C)C(=O)C(OC)=C(OC)C1=O)C(=O)O [APX3330] | – | 7.8%±0.64 | – | – | – | 0.43 ± 0.10 g | significantly reduced tumor growth | 42% | – | inhibit growth of large cell number colonies | selectively inhibited | ~1.5 | about 1000 fold | enhanced the effects of retinoic acid on promoting cell differentiation | did not significantly enhance the level of HL-60 cells undergoing apoptosis | inhibit tube formation
